# Results reported in patent US20230263822A1, “MODULATION OF FACTOR 11 EXPRESSION” (Ionis Pharmaceuticals, Inc., priority 2008, published 2023).
# Entries after “also recorded” stand apart in the source; their conditions may differ.
# Tests used:
# blood coagulation [1] = assay: PT and aPTT assay in platelet poor plasma (Example 10); type: in vivo; conditions: BALB/c mice
# Experimental: BALB/c mice were injected with 5 mg/kg, 10 mg/kg, 25 mg/kg, or 50 mg/kg of ISIS 404057 or ISIS 404071 twice a week for 3 weeks. A control group of mice was injected with phosphate buffered saline (PBS) twice a week for 3 weeks. Mice were sacrificed 5 days after receiving the last dose. Whole liver was harvested for RNA analysis and plasma was collected for clotting analysis (PT and aPTT) and protein analysis.
# Prothrombin Time (PT) and Activated Partial Thromboplastin Time (aPTT) were measured using platelet poor plasma (PPP) from mice treated with ISIS 404057 and ISIS 404071. PT and aPTT values provided in Table 18 are reported as International Normalized Ratio (INR) values. INR values for PT and aPTT were determined by dividing the PT or aPTT value for each experimental group (i.e. 5 mg/kg, 10 mg/kg, 25 mg/kg, and 50 mg/kg treatment with ISIS 404057 or ISIS 404071) by the PT or aPTT for the PBS treated group. This ratio was then raised to the power of the International Sensitivity Index (ISI) of the tissue factor used.
# [2] = test system: mesenteric vein thrombosis; assay: Mesenteric vein thrombosis, intravital microscopy (Example 22); type: in vivo; conditions: C57BL/6 mice, 50 mg/kg s.c. twice a week for three weeks
# Experimental: In a first cohort, ISIS 404071 was administered subcutaneously to C57BL/6 mice twice a week for three weeks at a dose of 50 mg/kg. In a second cohort, a control oligonucleotide, ISIS 405277 ([…]; antisense oligonucleotide for Factor 2), incorporated herein as SEQ ID NO: 12 was administered subcutaneously to C57Bl/6 mice twice a week for three weeks at a dose of 50 mg/kg.
# Blood was collected from the retro-orbital venous plexus of naïve C57BL/6 mice by puncture and collected in polypropylene tubes containing 300 μl of heparin (30 U/ml). Platelet rich plasma (PRP) was obtained by centrifugation at 1000 rpm for 5 min. The PRP was transferred to fresh tubes containing 2 μl of Prostaglandin I2 (PGI2) (2 μg/ml) and incubated at 37° C. for 5 min. After centrifugation at 2600 rpm, pellets were resuspended in 1 ml modified Tyrode's-HEPES buffer (137 mM NaCl, 0.3 mM Na2HPO4, 2 mM KCl, 12 mM NaHCO3, 5 mM HEPES, 5 mM glucose, 0.35% BSA, pH 7.2) containing 2 μl of PGI2 and incubated at 37° C. for 5 min. The suspended pellet was centrifuged at 2600 rpm for 5 min. To remove PGI2, the washing step was repeated twice and platelets were fluorescently labeled with calcein AM 2.5 μg/mL (Molecular Probes, Eugene, Oreg.) for 10 min at room temperature.
# Fluorescently-labeled platelets were injected intravenously in ISIS 404071 treated and control oligonucleotide treated C57BL/6 mice. […] The exposed mesentery was kept moist throughout the experiment by periodic superfusion with warmed (37° C.) PBS. The mesentery was transluminated with a 12V, 100 W, DC stabilized source. Veins were visualized using a Zeiss (Germany) Axiovert 135 inverted microscope (Objective 32X) connected to an SVHS video recorder (AG-6730; Panasonic, Tokyo, Japan) using a CCD video camera (Hamamatsu Photonic Systems, Hamamatsu City, Japan). Centerline erythrocyte velocity (Vrbc) was measured using an optical Doppler velocimeter (Microcirculation Research Institute, Texas A&M College of Medicine, College Station, Tex.). Venular shear rate (τ) was calculated based on Poiseuille's Law for a newtonian fluid, τ=8(Vmean/Dv), where Dv is the diameter of the venule and Vmean is estimated from the measured Vrbc using the empirical correlation Vmean=Vrbc/1.6.
# Mesenteric vein thrombosis was performed two days after the last antisense oligonucleotide injection. Thrombosis was induced by applying Whatman paper soaked in a 10% FeCl3 solution for 5 minutes on the mesenteric vein. The vein was monitored for 40 minutes, or until occlusion. The elapsed time before the first thrombus 30-50 μm in diameter and the elapsed time before blood stopped flowing for 30 seconds were observed.
# murine Factor 11 mRNA = assay: Time course of Factor 11 mRNA reduction in liver after one dose (Example 29); type: in vivo; conditions: BALB/c mice, one s.c. dose of 50 mg/kg, 12 hours to 56 days
# Experimental: (§1) One dose of 50 mg/kg ISIS 404071 was administered subcutaneously to BALB/c mice. Following ISIS 404071 administration, mice were sacrificed at 12 hours, 1 day, 2 days, 3 days, 4 days, 7 days, 14 days, 28 days, and 56 days. Whole liver was collected for RNA analysis and PPP was collected for aPTT analysis. A control group of mice was treated with one subcutaneous dose of PBS.
# RNA was extracted from liver tissue for real-time PCR analysis of Factor 11. Results are presented relative to PBS control. […] Mice began regaining Factor 11 mRNA expression by day 14.
# blood coagulation [3] = assay: Time course of aPTT after one dose (Example 29); type: in vivo, BALB/c mice; conditions: for aPTT INR: values approximate
# Experimental: as §1
# aPTT values provided in Table 43 are reported as International Normalized Ratio (INR) values. INR values for aPTT were determined by dividing the aPTT value for ISIS 404071 treated mice by the aPTT for the PBS treated group. This ratio was then raised to the power of the International Sensitivity Index (ISI) of the tissue factor used.
# [4] = 5 mg/kg twice a week for 3 weeks
# [5] = 10 mg/kg twice a week for 3 weeks
# [6] = 25 mg/kg twice a week for 3 weeks
# [7] = 50 mg/kg twice a week for 3 weeks
# [8] = 5-50 mg/kg twice a week for 3 weeks
substance,measurement,setting,value
"ISIS 404071: antisense oligonucleotide targeted to murine Factor 11 mRNA, TGGTAATCCACTTTCAGAGG, target start site 869 (chemistry not given here)",PT INR,blood coagulation [1]; [4],1.06
same,aPTT INR,blood coagulation [1]; [4],1.09
same,PT INR,blood coagulation [1]; [5],1.08
same,aPTT INR,blood coagulation [1]; [5],1.13
same,PT INR,blood coagulation [1]; [6],1.06
same,aPTT INR,blood coagulation [1]; [6],1.35
same,PT INR,blood coagulation [1]; [7],1.02
same,aPTT INR,blood coagulation [1]; [7],2.08
same,PT,blood coagulation [1]; [8],not significantly prolonged
same,aPTT,blood coagulation [1]; [8],prolonged in a dose-dependent manner
same,occlusion of veins within 40 minutes after injury,[2],did not occlude
same,time of occlusion (occlusive thrombi),[2]; 10% FeCl3 on mesenteric vein,29.5 min
same,time of thrombus formation (30 μm in diameter),[2]; 10% FeCl3 on mesenteric vein,14.8 ± 1.7 min
same,Factor 11 mRNA expression in liver over time,murine Factor 11 mRNA,significant Factor 11 mRNA down-regulation by day 1; also recorded: regained full Factor 11 mRNA expression by day 28; also recorded: did not experience a rebound effect
same,aPTT over time,"blood coagulation [3]; BALB/c mice, one s.c. dose of 50 mg/kg",progressive decrease of aPTT until day 4 and then progressive increase to pre-treatment levels from day 7 to day 28
same,aPTT INR,blood coagulation [3]; day 1 after one dose of 50 mg/kg s.c.,~1.02 INR
same,aPTT INR,blood coagulation [3]; day 2 after one dose of 50 mg/kg s.c.,~1.12 INR
same,aPTT INR,blood coagulation [3]; day 3 after one dose of 50 mg/kg s.c.,~1.29 INR
same,aPTT INR,blood coagulation [3]; day 4 after one dose of 50 mg/kg s.c.,~1.30 INR
same,aPTT INR,blood coagulation [3]; day 7 after one dose of 50 mg/kg s.c.,~1.25 INR
same,aPTT INR,blood coagulation [3]; day 14 after one dose of 50 mg/kg s.c.,~1.11 INR
same,aPTT INR,blood coagulation [3]; day 28 after one dose of 50 mg/kg s.c.,~1.02 INR
